Measurements: patent publication US20060211705A1, “'N-(2-chloro-6-methylphenyl)-2-[[6-[4-(2-hydroxyethyl)-1-piperazinyl]-2-methyl-4-pyrimidinyl]amino]-5-thiazolecarboxamides metabolites” (priority 2005, published 2006)

Experiments:
[1] = Metabolite profile of [14C] compound (I) in monkey liver microsome incubations; format: in vitro ADME, cynomolgus monkey; conditions: (Ia) 20 μM, 15 min, 37° C., 2 mg/mL microsomal protein, 2.0 mM NADPH
Protocol: (§1) The compound of formula (I) was used as the [^14C] compound (Ia) (30.4 μCi/mg, radiochemical purity 99.2%), as the monohydrate of the free base. The C-14 label was on the carbon in the 2-position of the thiazole ring.
(§2) Freshly isolated rat hepatocyte preparations were prepared from one male Sprague-Dawley rat. Rat Hepatocytes were prepared according to a standard procedure (Seglen, PO. Preparation of isolated rat liver cells. Methods Cell Biol., 1976, 13: 29-83). Cryopreserved cynomolgus monkey hepatocytes (male, pooled, n=6) and human hepatocytes (3 individual preparation) were purchased from In Vitro Technologies (Baltimore, Md.). Microsomes from male SD Rats (pooled, n=200, 20 mg/mL) and male cynomolgus monkeys (pooled, n=8, 20 mg/mL) were obtained from Xenotech LLC, Kansas City, Kans. Human liver microsomes (male, pooled, n=38) were from BD-Gentest, Woburn, Mass.
(§3) A 6 mM stock solution of the compound of formula (Ia) (the [^14C] of the compound of formula (I) was prepared at by dissolving 3.7 mg of the compound of formula (Ia) into 1:1 acetonitrile/DMSO. The 2 mM stock solution of the compound of formula (Ia) was obtained by diluting an aliquot of the 6 mM stock solution 3-fold with acetonitrile.
(§4) Hepatocyte incubations were conducted at 37° C. for 3 h in a NAPCO CO2 6000 incubator (VWR Scientific Products) under a 5% CO2 atmosphere using an orbital shaker at 90 rpm. For each incubation, the final concentration of compound (Ia) was 20 μM and the hepatocyte concentrations were ˜2 million cells/mL. A control incubation, in the absence of hepatocytes, was also performed for 3 h. The incubations were stopped by adding one volume of ice-cold acetonitrile. Each 0.5 mL incubation contained 0.1 M potassium phosphate buffer (pH 7.4), 2.5 mM MgCl2, 2 mg/mL microsomal protein, and 2.0 mM NADPH. The final substrate concentration was 20 μM. The mixtures were incubated in a shaking water bath at 37° C. for 15 min. Control incubations in the absence of microsomes or NADPH were performed for each species. The reactions were stopped with the addition of 1 mL of ice-cold acetonitrile.
(§5) HPLC was performed on a Waters Alliance™ system equipped with Waters 2695 pumps and a photodiode array detector (Waters 2996). A Phenomenex Synergy Polar-RP® column (4.6×250 mm, 5 micron) was used for metabolite separation. All HPLC analyses were performed at 1 mL/min flow rate at room temperature. Two HPLC mobile phase and gradient systems were used because all metabolites could not be completely separated on either of the individual HPLC systems. The first system consisted of (A) water with 0.1% formic acid and (B) acetonitrile with 0.1% formic acid as mobile phase. The linear gradient was as follows: 0 min, 20% B; 1 min, 20% B; 41 min, 35% B; 42 min, 90% B; 44 min, 90% B. The column was re-equilibrated at 20% B for 6 min before the next injection. The second HPLC system was used to separate certain co-eluting metabolites that could not be separated by the first system. The mobile phase consisted of (A) water with 0.1% triflouroacetic acid (TFA) and (B) acetonitrile with 0.1% TFA. The gradient was as follows: 0 min, 20% B; 1 min, 20% B; 51 min, 35% B; 52 min, 90% B; 54 min 90% B. The column was equilibrated at 20% B for 6 min prior to the next injection.
(§6) On-line radioactivity detection (RAD) was conducted using an INUS β-RAM detector (Model 3, INUS, Tampa, Fla.). The β-RAM was operated with a 500 μL liquid flow cell in the homogeneous liquid scintillation counting mode. A flow rate of 2 mL/min of scintillation cocktail was mixed with the HPLC effluent. The effluent from HPLC was split to the β-RAM detector (90%) and the mass spectrometer (10%) by adjusting the length and diameter of post column tubings. The β-RAM detector provided integrated output detailing the percentage and amount of radioactivity under each radioactive peak.
(§7) Hepatocyte and liver microsomal incubations were quenched with acetonitrile and were vortex-mixed for 3 min. […]

[2] = Metabolite profile of [14C] compound (I) in human hepatocyte incubations; format: in vitro ADME; conditions: (Ia) 20 μM, 3 h, 37° C., ~2 million cells/mL; relative distribution in radiochromatographic profile
Protocol: as §1, §2, §3
Human (3 vials from 3 individuals) and monkey cryopreserved hepatocytes were thawed according to the procedure provided by In Vitro Technologies. Briefly, the caps of the cryovials were loosened to release any trapped liquid nitrogen and kept on ice for 2 min. The caps were tightened and the vials were immersed in a 37° C. water bath for 75-90 sec with gentle shaking. The thawed samples (3 cryovials/[…] for each 50 mL tube) were transferred into 25 mL pre-warmed Krebs-Henseleit buffer in a 50 mL tube and gently inverted. The suspensions were evenly divided into 2 tubes and diluted to 40 mL with pre-warmed Krebs-Henseleit buffer. The tubes were centrifuged in an Eppendorf 5810R centrifuge (Hamburg, Germany) at 200 rpm at 4° C. for 10 min. The supernatant was discarded and the pellet gently suspended in 2 mL of Krebs-Henseleit buffer. All the tubes were combined into one tube, rinsing the empty tubes with 1 mL Krebs-Henseleit buffer. The cells were counted, checked for viability and diluted accordingly with modified Krebs-Henseleit buffer to give a final concentration of 2 million viable cells/mL.
Viability of the hepatocytes was checked using a Trypan Blue exclusion assay and a hemocytometer. A mixture of 0.1 mL of the hepatocyte suspension and 0.1 mL of trypan blue solution were diluted with 0.8 mL of Krebs-Henseleit buffer. The solution was gently mixed and plated onto a Levy hemocytometer (Hausser Scientific) and the viable cells (unstained) were counted under a light microscope. The viability of the hepatocytes ranged from 77% to 90% at the beginning of the incubations.
as §4
HPLC was performed on a Waters Alliance™ system equipped with Waters 2695 pumps and a photodiode array detector (Waters 2996). A Phenomenex Synergy Polar-RP® column (4.6×250 mm, 5 micron) was used for metabolite separation. […]

[3] = Metabolite profile of [14C] compound (I) in rat liver microsome incubations; format: in vitro ADME, SD rat; conditions: (Ia) 20 μM, 15 min, 37° C., 2 mg/mL microsomal protein, 2.0 mM NADPH
Protocol: as §1, §2, §3, §4, §5, §6, §7

[4] = Metabolite profile of [14C] compound (I) in human liver microsome incubations; format: in vitro ADME; conditions: (Ia) 20 μM, 15 min, 37° C., 2 mg/mL microsomal protein, 2.0 mM NADPH
Protocol: as §1, §2, §3, §4, §5, §6, §7

Row | SMILES | % of Radioactivity in Microsomes, Monkey [1] [%] | % of Radioactivity in Hepatocytes, Human [2] [%] | % of Radioactivity in Microsomes, Rat [3] [%] | % of Radioactivity in Microsomes, Human [4] [%]
1 | Cc1nc(Nc2ncc(C(=O)Nc3c(C)cccc3Cl)s2)cc(N2CCNCC2)n1 [M4 (II)] | 5.8 | 1.0 | 1.8 | 4.0
2 | Cc1nc(Nc2ncc(C(=O)Nc3c(C)cccc3Cl)s2)cc(N2CC[N+]([O-])(CCO)CC2)n1 [M5 (III)] | 8.6 | 2.3 | 37.3 | 4.0
3 | Cc1nc(Nc2ncc(C(=O)Nc3c(C)cccc3Cl)s2)cc(N2CCN(CC(=O)O)CC2)n1 [M6 (IV), 2-(4-(6-(5-((2-Chloro-6-methylphenyl)carbamoyl)thiazol-2-ylamino)-2-methylpyrimidin-4-yl)piperazin-1-yl)acetic acid] | 2.1 | 9.2 | 0.7 | 1.6
4 | Cc1nc(Nc2ncc(C(=O)Nc3c(C)cc(O)cc3Cl)s2)cc(N2CCN(CCO)CC2)n1 [M20 (V)] | 30.0 | 2.6 | 4.5 | 39.2
5 | Cc1nc(Nc2ncc(C(=O)Nc3c(Cl)cccc3CO)s2)cc(N2CCN(CCO)CC2)n1 [M24 (VI), N-(2-chloro-6-(hydroxymethyl)phenyl)-2-(6-(4-(2-hydroxyethyl)piperazin-1-yl)-2-methylpyrimidin-4-ylamino)thiazole-5-carboxamide] | 30.0 | 2.6 | 4.5 | 39.2
6 | Cc1nc(Nc2ncc(C(=O)Nc3c(C)cccc3Cl)s2)cc(N2CCN(CCO)CC2)n1 [Parent (I), N-(2-Chloro-6-methylphenyl)-2-[[6-[4-(2-hydroxyethyl)-1-piperazinyl]-2-methyl-4-pyrimidinyl]amino]-5-thiazolecarboxamide] | 27.7 | 77.7 | 54.2 | 35.5
